{
  "source": "ChEMBL document CHEMBL1201862",
  "about": "“PubChem BioAssay data set” (2004)",
  "key": {"[1]": {"biological_target": "T1, Heat shock factor protein 1 (Mus musculus, UniProt P38532)", "T1 sequence (P38532 whole entry)": "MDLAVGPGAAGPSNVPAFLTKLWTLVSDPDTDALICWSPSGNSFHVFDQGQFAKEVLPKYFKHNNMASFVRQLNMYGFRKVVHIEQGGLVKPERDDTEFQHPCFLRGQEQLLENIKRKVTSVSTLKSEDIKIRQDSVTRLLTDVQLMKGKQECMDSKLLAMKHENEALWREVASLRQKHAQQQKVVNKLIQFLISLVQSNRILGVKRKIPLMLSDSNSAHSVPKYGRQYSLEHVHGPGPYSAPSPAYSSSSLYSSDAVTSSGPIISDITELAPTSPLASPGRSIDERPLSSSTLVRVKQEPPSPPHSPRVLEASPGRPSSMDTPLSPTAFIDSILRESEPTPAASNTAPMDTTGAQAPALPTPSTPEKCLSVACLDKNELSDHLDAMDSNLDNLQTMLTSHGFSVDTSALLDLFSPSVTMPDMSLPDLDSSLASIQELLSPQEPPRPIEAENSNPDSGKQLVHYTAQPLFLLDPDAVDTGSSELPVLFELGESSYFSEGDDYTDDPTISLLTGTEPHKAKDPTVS", "assay": "enhancement of HSF1-driven luciferase signal – cell-based, NIH3T3, luminescence, dose retest, confirmation (AID 435004);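 also: stress induced by proteasome inhibitor MG132 added 30 min after compound; actives raise luminescence as potentiators of the MG132 stress response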", "type": "functional"}, "[2]": {"assay": "HGIII-sPLA2 enzyme inhibition potency – biochemical, QFRET, IC50, dose response (AID 743457);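 also: green fluorescence rise as the enzyme cleaves BODIPY PC-A2 in liposomes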"}, "[3]": {"biological_target": "T2, Corticotropin-releasing factor receptor 2/Corticotropin-releasing factor-binding protein (Homo sapiens, UniProt P24387+Q13324)", "T2 sequence (Q13324 whole entry)": "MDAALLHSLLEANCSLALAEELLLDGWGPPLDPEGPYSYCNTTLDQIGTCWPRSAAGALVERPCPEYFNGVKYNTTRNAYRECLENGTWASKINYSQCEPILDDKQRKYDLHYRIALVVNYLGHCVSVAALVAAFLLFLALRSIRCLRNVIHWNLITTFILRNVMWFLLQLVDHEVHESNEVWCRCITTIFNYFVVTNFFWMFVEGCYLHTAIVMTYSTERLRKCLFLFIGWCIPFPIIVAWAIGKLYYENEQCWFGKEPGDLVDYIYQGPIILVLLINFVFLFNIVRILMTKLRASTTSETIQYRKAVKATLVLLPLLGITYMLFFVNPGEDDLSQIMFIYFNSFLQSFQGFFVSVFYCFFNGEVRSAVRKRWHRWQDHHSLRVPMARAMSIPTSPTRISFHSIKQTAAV", "T2 sequence (P24387 whole entry)": "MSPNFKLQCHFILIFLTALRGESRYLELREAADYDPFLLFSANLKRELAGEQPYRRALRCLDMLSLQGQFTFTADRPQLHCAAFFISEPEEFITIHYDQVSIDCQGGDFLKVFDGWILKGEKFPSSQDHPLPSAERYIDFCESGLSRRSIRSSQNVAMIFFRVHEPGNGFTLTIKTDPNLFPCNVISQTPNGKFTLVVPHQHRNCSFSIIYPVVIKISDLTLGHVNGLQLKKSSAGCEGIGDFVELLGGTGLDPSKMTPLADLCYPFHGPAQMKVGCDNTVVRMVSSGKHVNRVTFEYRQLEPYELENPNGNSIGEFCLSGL", "assay": "Dose Response confirmation of uHTS hits for small molecule antagonists of the CRF-binding protein and CRF-R2 receptor complex.", "type": "functional", "details": "read-out: IC50_Mean"}, "[4]": {"biological_target": "T3, DNA repair protein RAD52 homolog (Homo sapiens, UniProt P43351)", "T3 sequence (P43351 whole entry)": "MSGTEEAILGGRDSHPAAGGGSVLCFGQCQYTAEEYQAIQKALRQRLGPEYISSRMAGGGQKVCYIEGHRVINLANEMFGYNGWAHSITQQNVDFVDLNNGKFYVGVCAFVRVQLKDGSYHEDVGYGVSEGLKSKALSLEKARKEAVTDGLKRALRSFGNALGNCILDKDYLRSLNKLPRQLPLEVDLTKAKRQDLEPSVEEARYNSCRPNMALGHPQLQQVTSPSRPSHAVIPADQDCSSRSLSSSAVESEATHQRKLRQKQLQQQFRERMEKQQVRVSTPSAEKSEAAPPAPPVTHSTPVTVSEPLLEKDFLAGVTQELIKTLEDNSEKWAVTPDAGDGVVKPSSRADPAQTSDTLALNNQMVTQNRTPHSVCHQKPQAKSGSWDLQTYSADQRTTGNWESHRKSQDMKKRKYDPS", "type": "functional, biochemical"}, "[5]": {"biological_target": "T2, Corticotropin-releasing factor receptor 2/Corticotropin-releasing factor-binding protein", "assay": "activators of CRF receptor 2 with binding protein – uHTS hits, confirmation (AID 602473)", "type": "functional", "details": "read-out: EC50_Mean"}, "cells [6]": {"assay": "cells", "type": "functional, cell-based"}, "[7]": {"biological_target": "T4, Trace amine-associated receptor 1 (Homo sapiens, UniProt Q96RJ0)", "T4 sequence (Q96RJ0 whole entry)": "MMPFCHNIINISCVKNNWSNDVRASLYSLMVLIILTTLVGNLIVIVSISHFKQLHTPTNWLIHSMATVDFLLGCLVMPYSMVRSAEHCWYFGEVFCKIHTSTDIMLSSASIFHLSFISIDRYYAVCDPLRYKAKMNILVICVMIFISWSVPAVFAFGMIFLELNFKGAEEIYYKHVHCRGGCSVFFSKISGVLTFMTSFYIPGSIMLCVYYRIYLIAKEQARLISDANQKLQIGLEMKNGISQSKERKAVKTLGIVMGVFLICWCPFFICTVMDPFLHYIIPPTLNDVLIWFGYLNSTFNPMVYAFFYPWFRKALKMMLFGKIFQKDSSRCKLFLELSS", "assay": "Counterscreen for agonists of the human trace amine associated receptor 1 (hTAAR1): Fluorescence-based cell-based high throughput dose response assay to identify hTAAR1 agonist that also desensitize TAAR1 receptor response.", "type": "functional"}, "[8]": {"biological_target": "T4, Trace amine-associated receptor 1", "assay": "Fluorescence-based cell-based high throughput dose response assay to identify agonists of the human trace amine associated receptor 1 (TAAR1).", "type": "functional"}, "cells [9]": {"assay": "cells", "type": "functional, cell-based", "remark": "listed apart in the source"}, "[10]": {"assay": "HIV-1 Vif–A3G interaction blockers – biochemical, TR-FRET, GST-Vif 1-94, biotin-A3G peptide, dose response retest, primary screen (AID 1117319);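 also: inhibitors lower the FRET signal by blocking Vif and A3G binding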", "type": "functional"}, "[11]": {"biological_target": "T5, RNA-editing ligase 1, mitochondrial (Trypanosoma brucei brucei, UniProt P86926)", "T5 sequence (P86926 whole entry)": "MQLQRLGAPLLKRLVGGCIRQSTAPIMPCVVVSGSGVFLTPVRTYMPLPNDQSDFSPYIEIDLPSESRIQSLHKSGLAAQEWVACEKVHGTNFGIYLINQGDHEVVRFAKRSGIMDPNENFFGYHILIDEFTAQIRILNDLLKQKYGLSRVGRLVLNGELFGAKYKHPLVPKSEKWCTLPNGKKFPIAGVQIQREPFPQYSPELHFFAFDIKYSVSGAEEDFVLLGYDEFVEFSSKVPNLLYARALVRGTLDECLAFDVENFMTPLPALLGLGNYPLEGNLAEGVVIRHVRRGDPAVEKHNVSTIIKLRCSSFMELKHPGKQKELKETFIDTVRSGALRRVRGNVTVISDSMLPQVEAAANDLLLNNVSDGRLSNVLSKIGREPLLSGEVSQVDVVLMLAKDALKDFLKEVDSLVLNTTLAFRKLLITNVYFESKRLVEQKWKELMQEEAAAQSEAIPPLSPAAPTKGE", "assay": "inhibition of trypanosome RNA editing ligase – biochemical, fluorescence, Trypanosoma brucei, dose response (AID 1117295)", "type": "functional"}, "[12]": {"assay": "IGROV1 cell killing – plate reader, dry powder samples, PAX8 inhibitor project, dose response (AID 743043)", "type": "functional, cell-based", "details": "IGROV-1"}, "Paired box protein Pax-8": {"biological_target": "Paired box protein Pax-8 (Homo sapiens, UniProt Q06710)", "sequence (Q06710 whole entry)": "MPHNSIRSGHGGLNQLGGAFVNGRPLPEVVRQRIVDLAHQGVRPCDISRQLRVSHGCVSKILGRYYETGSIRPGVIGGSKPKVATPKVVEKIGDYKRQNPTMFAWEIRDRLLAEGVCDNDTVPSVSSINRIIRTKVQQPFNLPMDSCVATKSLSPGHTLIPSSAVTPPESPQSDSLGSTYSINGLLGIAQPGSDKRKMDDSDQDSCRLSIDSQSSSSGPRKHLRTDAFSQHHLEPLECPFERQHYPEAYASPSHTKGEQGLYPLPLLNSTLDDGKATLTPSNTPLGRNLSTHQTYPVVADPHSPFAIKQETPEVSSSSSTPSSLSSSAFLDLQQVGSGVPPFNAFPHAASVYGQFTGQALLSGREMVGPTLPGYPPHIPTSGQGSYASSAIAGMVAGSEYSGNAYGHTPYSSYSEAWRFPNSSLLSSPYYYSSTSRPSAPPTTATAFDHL", "assay": "PAX8 transcriptional activity inhibition in RMG-I – RMG-I cells, luciferase, cherry-pick, dose response (AID 687027);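 also: luciferase reporter driven by Pax8 target thyroperoxidase promoter measured by SteadyGlo luminescence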", "type": "functional, cell-based"}, "[13]": {"assay": "potency of ADAM10 substrate cleavage blockers – biochemical, QFRET, dose response (AID 743254);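 also: EDANS fluorescence gain as the protease cuts the substrate; inhibitor potency against ADAM10 proteolytic activity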"}, "[14]": {"biological_target": "T6, Disintegrin and metalloproteinase domain-containing protein 17 (Homo sapiens, UniProt P78536)", "T6 sequence (P78536 whole entry, the tested form may be a part)": "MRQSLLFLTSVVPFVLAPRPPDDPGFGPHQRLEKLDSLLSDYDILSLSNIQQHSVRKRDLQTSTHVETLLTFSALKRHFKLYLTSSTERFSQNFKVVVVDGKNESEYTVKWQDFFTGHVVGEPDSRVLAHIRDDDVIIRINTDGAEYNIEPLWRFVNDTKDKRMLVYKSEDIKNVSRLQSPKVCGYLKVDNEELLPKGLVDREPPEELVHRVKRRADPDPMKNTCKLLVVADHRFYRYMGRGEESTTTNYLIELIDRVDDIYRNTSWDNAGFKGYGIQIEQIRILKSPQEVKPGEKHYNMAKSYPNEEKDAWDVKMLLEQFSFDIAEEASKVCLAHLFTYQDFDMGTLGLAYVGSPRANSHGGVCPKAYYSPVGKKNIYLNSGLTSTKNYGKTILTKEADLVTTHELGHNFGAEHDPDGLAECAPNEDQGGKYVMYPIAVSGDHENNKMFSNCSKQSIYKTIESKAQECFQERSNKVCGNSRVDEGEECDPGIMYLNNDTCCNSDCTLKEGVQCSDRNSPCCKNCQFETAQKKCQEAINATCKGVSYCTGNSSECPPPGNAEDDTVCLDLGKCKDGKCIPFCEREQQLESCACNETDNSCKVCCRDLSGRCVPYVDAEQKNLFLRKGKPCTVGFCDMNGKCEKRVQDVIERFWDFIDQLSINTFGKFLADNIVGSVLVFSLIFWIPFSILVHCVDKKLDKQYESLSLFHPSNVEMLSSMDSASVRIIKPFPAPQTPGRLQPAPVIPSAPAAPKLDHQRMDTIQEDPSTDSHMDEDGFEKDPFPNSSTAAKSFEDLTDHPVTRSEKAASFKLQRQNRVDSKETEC", "assay": "exosite inhibitors of ADAM17, dose response, biochemical (AID 743260)"}, "[15]": {"biological_target": "T6, Disintegrin and metalloproteinase domain-containing protein 17", "assay": "inhibition of ADAM17 substrate cleavage – biochemical, quenched FRET substrate, counter-screen for ADAM10 exosite inhibitor project, dose response (AID 743253)"}},
  "note": "Activity calls are given as the source filed them.",
  "data": [
    {"smiles": "C=CCNC(=S)NNC(=O)c1cccn(Cc2ccc(Cl)c(Cl)c2)c1=O", "values": [
      {"measurement": "EC50", "setting": "[1]", "result": "> 260 µM (inactive)"},
      {"measurement": "IC50", "setting": "[2]", "result": "> 122 µM (inactive)"}
    ]},
    {"smiles": "CC(=O)c1cccc(Nc2cc(C)nc3c(C)cccc23)c1", "values": [
      {"measurement": "IC50", "setting": "[3]", "result": "> 47.1 µM (inactive)"},
      {"measurement": "AC50", "setting": "[4]", "result": "21.4 µM (active)"},
      {"measurement": "EC50", "setting": "[5]", "result": "> 53 µM (inactive)"}
    ]},
    {"smiles": "O=C(Nc1nccs1)c1[nH]cnc1C(=O)N1CCc2ccccc2C1", "values": [
      {"measurement": "EC50", "setting": "cells [6]", "result": "> 29.9 µM (inactive)"},
      {"measurement": "IC50", "setting": "[7]", "result": "4.95 µM (active)"},
      {"measurement": "EC50", "setting": "[8]", "result": "0.858 µM (active)"},
      {"measurement": "IC50", "setting": "cells [9]", "result": "> 29.9 µM (inactive)"}
    ]},
    {"smiles": "Cc1cc(NC(=O)CSc2nnc(-c3ccoc3C)n2N)no1", "values": [
      {"measurement": "IC50", "setting": "[10]", "result": "> 100 µM (active)"}
    ]},
    {"smiles": "COc1cccc(CNc2nc(NCc3ccccc3)nc3ccsc23)c1", "values": [
      {"measurement": "IC50", "setting": "[11]", "result": "> 96.6 µM (inactive)"}
    ]},
    {"smiles": "O=C(N[C@@H](Cc1cccnc1)C(=O)N1CCC[C@H]1C(=O)NCCc1ccccc1Cl)c1cccs1", "values": [
      {"measurement": "EC50", "setting": "cells [6]", "result": "> 29.9 µM (inactive)"},
      {"measurement": "IC50", "setting": "[7]", "result": "14.4 µM (inactive)"},
      {"measurement": "EC50", "setting": "[8]", "result": "8.12 µM (active)"},
      {"measurement": "IC50", "setting": "cells [9]", "result": "> 29.9 µM (inactive)"}
    ]},
    {"smiles": "Cc1ccc(S(=O)(=O)Nc2ccc3c(c2)C(=O)N([C@H](C)CO)C[C@@H](C)[C@H](CN(C)S(=O)(=O)c2ccc(C)cc2)OCCCC[C@H](C)O3)cc1", "values": [
      {"measurement": "AC50", "setting": "[12]", "result": "51.4 µM (active)"},
      {"measurement": "AC50", "setting": "Paired box protein Pax-8", "result": "9.07 µM (active)"}
    ]},
    {"smiles": "CCN(CC)c1ccc(C=NNC(=O)c2cc(-c3ccc(C)c(C)c3)[nH]n2)c(O)c1", "values": [
      {"measurement": "IC50", "setting": "[2]", "result": "> 122 µM (inactive)"}
    ]},
    {"smiles": "Cc1ccccc1NC(C)C(=O)N/N=C/c1ccccc1OCc1cccc(Br)c1", "note": "(stereo not given)", "values": [
      {"measurement": "IC50", "setting": "[13]", "result": "> 69.5 µM (inactive)"},
      {"measurement": "IC50", "setting": "[14]", "result": "> 69.5 µM (inactive)"},
      {"measurement": "IC50", "setting": "[15]", "result": "> 69.5 µM (inactive)"}
    ]},
    {"smiles": "Cc1ccsc1/C=N\\Nc1cnnc(O)c1Cl", "values": [
      {"measurement": "EC50", "setting": "cells [6]", "result": "> 29.9 µM (inactive)"},
      {"measurement": "IC50", "setting": "[7]", "result": "8.29 µM (active)"},
      {"measurement": "EC50", "setting": "[8]", "result": "2.16 µM (active)"},
      {"measurement": "IC50", "setting": "cells [9]", "result": "> 29.9 µM (inactive)"}
    ]}
  ]
}
